According to patent US8148391B2 (Cephalon, Inc., priority 2006, dated 2012):
Where two headings read alike, the source gives them in different places. Values belong to the compound of their own block, whether it stands above or below them.

Assays:
[1] = target: T1, baculovirus-expressed ALK (Homo sapiens, UniProt Q9UM73); assay: ALK Kinase Assay (ELISA-type, time-resolved fluorescence); assay type: biochemical
T1 construct: host or cells: baculovirus expression system
How it was run: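 Wells were coated with phospholipase C-γ at 10 μg/mL in Tris-buffered saline. Adding 30 ng/ml enzyme started the reaction, which ran at 37° C for 15 minutes before Eu-N1 PT66 antibody detection. Percent inhibition versus log10 concentration gave IC50 by variable-slope fit.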

[2] = target: T2, c-Met (cytoplasmic domain) (Homo sapiens, UniProt P08581); assay: c-Met Kinase Assay (same methods as for ALK, with modifications); assay type: biochemical
T2 construct: 10 ng/mL c-Met (cytoplasmic domain, Invitrogen Corporation #PV3143); purchased Invitrogen Corporation PV3143
How it was run: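 Steps: coat wells with PLC-γ (10 μg/mL, Tris-buffered saline); add 10 ng/mL c-Met cytoplasmic domain to initiate; incubate 15 min, 37° C; detect phosphoproduct via Eu-N1 PT66 antibody.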

[3] = ALK kinase inhibition, 1 μM ATP, read-out: ALK Activity
[4] = c-Met kinase inhibition, 1 μM ATP, read-out: cMet Activity
[5] = 1 μM ATP (Km level), read-out: ALK Activity (ALK Kinase Inhibition, IC50)
[6] = 1 μM ATP (Km level), read-out: cMet Activity (c-Met Kinase Inhibition, IC50)
[7] = ALK kinase inhibition, 1 μM ATP (Km level), read-out: ALK Activity
[8] = c-Met kinase inhibition, 1 μM ATP (Km level), read-out: cMet Activity

T2 sequence (P08581 956-1390 limits assumed): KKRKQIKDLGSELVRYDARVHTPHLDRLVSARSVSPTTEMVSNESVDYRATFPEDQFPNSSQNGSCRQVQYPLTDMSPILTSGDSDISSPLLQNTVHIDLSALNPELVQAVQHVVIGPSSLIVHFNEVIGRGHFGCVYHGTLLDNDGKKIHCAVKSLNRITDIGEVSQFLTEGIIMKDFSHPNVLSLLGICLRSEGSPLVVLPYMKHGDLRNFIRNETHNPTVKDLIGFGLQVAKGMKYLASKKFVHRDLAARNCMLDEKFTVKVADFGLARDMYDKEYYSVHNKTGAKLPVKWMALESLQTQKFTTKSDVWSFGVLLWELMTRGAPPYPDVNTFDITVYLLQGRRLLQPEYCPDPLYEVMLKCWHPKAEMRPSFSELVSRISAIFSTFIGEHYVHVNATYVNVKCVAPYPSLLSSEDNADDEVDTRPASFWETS
T1 sequence (Q9UM73 19-1620): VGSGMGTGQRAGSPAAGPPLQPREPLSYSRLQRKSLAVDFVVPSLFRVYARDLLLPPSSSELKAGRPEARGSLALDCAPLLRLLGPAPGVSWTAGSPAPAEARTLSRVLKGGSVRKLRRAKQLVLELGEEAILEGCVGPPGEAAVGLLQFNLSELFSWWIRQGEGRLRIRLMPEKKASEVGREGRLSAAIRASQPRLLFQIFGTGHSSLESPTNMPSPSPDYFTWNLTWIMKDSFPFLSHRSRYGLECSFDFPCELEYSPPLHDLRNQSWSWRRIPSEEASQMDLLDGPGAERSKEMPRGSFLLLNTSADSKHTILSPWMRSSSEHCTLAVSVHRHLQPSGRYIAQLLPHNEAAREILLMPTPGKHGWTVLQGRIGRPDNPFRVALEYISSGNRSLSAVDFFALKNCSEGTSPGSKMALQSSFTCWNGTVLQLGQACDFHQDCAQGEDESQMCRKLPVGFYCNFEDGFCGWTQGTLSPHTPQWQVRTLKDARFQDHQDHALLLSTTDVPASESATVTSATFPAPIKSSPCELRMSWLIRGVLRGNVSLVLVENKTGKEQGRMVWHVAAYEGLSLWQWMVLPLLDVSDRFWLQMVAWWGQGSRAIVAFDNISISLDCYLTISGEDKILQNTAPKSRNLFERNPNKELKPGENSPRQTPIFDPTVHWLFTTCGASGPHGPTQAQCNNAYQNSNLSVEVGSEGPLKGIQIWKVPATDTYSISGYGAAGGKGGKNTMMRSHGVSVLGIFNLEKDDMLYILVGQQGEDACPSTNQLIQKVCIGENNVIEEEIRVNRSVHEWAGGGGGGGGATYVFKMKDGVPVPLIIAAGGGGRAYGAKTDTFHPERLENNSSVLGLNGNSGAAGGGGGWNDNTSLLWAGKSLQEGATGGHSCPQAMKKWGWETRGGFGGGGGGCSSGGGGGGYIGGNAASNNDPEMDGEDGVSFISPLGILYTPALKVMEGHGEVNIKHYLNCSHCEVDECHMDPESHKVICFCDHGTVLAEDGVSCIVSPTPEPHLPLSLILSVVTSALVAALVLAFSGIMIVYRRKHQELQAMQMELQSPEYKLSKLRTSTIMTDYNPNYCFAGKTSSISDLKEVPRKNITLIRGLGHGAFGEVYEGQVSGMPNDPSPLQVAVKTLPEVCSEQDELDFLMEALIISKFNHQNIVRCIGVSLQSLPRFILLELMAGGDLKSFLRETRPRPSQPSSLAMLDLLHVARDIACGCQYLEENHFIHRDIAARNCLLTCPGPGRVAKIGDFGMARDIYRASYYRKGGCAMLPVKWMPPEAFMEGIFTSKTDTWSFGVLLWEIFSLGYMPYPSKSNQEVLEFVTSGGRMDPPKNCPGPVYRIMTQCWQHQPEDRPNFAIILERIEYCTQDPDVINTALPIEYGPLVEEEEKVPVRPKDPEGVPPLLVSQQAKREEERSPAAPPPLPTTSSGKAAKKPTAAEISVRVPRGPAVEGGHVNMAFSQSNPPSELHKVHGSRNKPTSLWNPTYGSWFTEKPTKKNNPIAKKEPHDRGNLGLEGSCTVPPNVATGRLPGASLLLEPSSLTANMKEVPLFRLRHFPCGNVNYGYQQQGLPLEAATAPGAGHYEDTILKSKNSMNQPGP

Compound: CCC1C(=O)N(CC)CCc2c1ccc(Nc1ncc(Cl)c(Nc3ccccc3C(=O)NC)n1)c2OC (stereo not drawn) [Example 152, 2-[5-Chloro-2-(1,3-diethyl-6-methoxy-2-oxo-2,3,4,5-tetrahydro-1H-benzo[d]azepin-7-ylamino)-pyrimidin-4-ylamino]-N-methyl-benzamide]
IC50 [1, 7]: < 100 nM
IC50 [2, 8]: 1000 to 10000 nM

Compound: CC1(C)CCC(=O)Nc2ccc(Nc3ncc(Cl)c(Nc4ccccc4C(=O)NC4CC4)n3)cc21 [Example 341]
IC50 [1, 7]: < 100 nM
IC50 [2, 8]: 100 to 1000 nM

Compound: 2-[5-Chloro-2-(3-methyl-4-oxo-2,3,4,5-tetrahydro-1H-benzo[d]azepin-7-ylamino)-pyrimidin-4-ylamino]-3,5,N-trimethyl-benzamide [Example 1818]
IC50 [1, 3]: 1000 to 10000 nM
IC50 [2, 4]: 100 to 1000 nM

Compound: CN1CCCCc2cc(Nc3ncc(Cl)c(Nc4ccccc4NS(C)(=O)=O)n3)ccc21 [Example 106, N-{2-[5-Chloro-2-(1-methyl-2,3,4,5-tetrahydro-1H-benzo[b]azepin-7-ylamino)-pyrimidin-4-ylamino]-phenyl}-methanesulfonamide]
IC50 [1, 7]: < 100 nM
IC50 [2, 8]: 100 to 1000 nM

Compound: COc1cc(N2CCOCC2)ccc1Nc1nc(Nc2ccc3c(c2)CCC(=O)CC3)ncc1Cl [Example 175, 2-[5-Chloro-4-(2-methoxy-4-morpholin-4-yl-phenylamino)-pyrimidin-2-ylamino]-5,6,8,9-tetrahydro-benzocyclohepten-7-one]
IC50 [1, 7]: < 100 nM
IC50 [2, 8]: 1000 to 10000 nM

Compound: COCCN1CCc2ccc(Nc3ncc(Cl)c(NC4C5CCC(C5)C4C(N)=O)n3)cc2CC1 (stereo not drawn) [Example 177, (2-exo,3-exo)-3-{5-Chloro-2-[3-(2-methoxy-ethyl)-2,3,4,5-tetrahydro-1H-benzo[d]azepin-7-ylamino]-pyrimidin-4-ylamino}-bicyclo[2.2.1]heptane-2-carboxylic acid amide]
IC50 [1, 7]: < 100 nM
IC50 [2, 8]: 100 to 1000 nM

Compound: CNC(=O)c1ccccc1Nc1nc(Nc2ccc3c(c2)C2CN(S(C)(=O)=O)CC3O2)ncc1Cl (stereo not drawn) [Example 64, 2-[5-Chloro-2-(10-methanesulfonyl-12-oxa-10-aza-tricyclo[6.3.1.0*2,7*]dodeca-2(7),3,5-trien-4-ylamino)-pyrimidin-4-ylamino]-N-methyl-benzamide]
IC50 [1, 7]: 100 to 1000 nM
IC50 [2, 8]: < 100 nM

Compound: CNC(=O)c1ccccc1Nc1nc(Nc2ccc3c(c2)C2CCC(C3)N2)ncc1Cl (stereo not drawn) [Example 79, 2-[2-(12-Aza-tricyclo[7.2.1.0*2,7*]dodeca-2(7),3,5-trien-4-ylamino)-5-chloro-pyrimidin-4-ylamino]-N-methyl-benzamide]
IC50 [1, 7]: < 100 nM
IC50 [2, 8]: < 100 nM

Compound: CCN1CCc2ccc(Nc3ncc(Cl)c(NCC(C)NS(C)(=O)=O)n3)cc2CC1 (stereo not drawn) [Example 300, N-{2-[5-Chloro-2-(3-ethyl-2,3,4,5-tetrahydro-1H-benzo[d]azepin-7-ylamino)-pyrimidin-4-ylamino]-1-methyl-ethyl}-methanesulfonamide]
IC50 [1, 7]: 100 to 1000 nM
IC50 [2, 8]: 1000 to 10000 nM

Compound: CCN1CC2CC(C1)c1cc(Nc3ncc(Cl)c(Nc4ccccc4C(=O)NC)n3)ccc12 (stereo not drawn) [Example 156, 2-[5-Chloro-2-(10-ethyl-10-aza-tricyclo[6.3.1.0*2,7*]dodeca-2,4,6-trien-4-ylamino)-pyrimidin-4-ylamino]-N-methyl-benzamide]
IC50 [1, 7]: < 100 nM
IC50 [2, 8]: < 100 nM

Compound: CNS(=O)(=O)c1ccccc1Nc1nc(Nc2ccc3c(c2)CCCC(=O)N3CC(=O)N2CCN(C)CC2)ncc1Cl [Example 10, 2-(5-Chloro-2-{1-[2-(4-methyl-piperazin-1-yl)-2-oxo-ethyl]-2-oxo-2,3,4,5-tetrahydro-1H-benzo[b]azepin-7-ylamino}-pyrimidin-4-ylamino)-N-methyl-benzenesulfonamide]
IC50 [1, 7]: < 100 nM
IC50 [2, 8]: < 100 nM

The next lines start with the values.

IC50 [1, 3]: 100 to 1000 nM
IC50 [2, 4]: 1000 to 10000 nM
Compound: CC(=O)NCc1ccccc1Nc1nc(Nc2ccc3c(c2)CCOC(=O)N3C)ncc1Cl [Example 1793, N-{2-[5-Chloro-2-(5-methyl-6-oxo-5,6,8,9-tetrahydro-7-oxa-5-aza-benzocyclohepten-2-ylamino)-pyrimidin-4-ylamino]-benzyl}-acetamide]

IC50 [1, 5]: 100 to 1000 nM
IC50 [2, 6]: > 10000 nM
Compound: COc1cc2c(cc1Nc1ncc(F)c(NC3C4C=CC(C4)C3C(N)=O)n1)CCN(CC(F)F)CC2 (stereo not drawn) [Example 769, (2-exo,3-exo)-3-{2-[3-(2,2-Difluoro-ethyl)-8-methoxy-2,3,4,5-tetrahydro-1H-benzo[d]azepin-7-ylamino]-5-fluoro-pyrimidin-4-ylamino}-bicyclo[2.2.1]hept-5-ene-2-carboxylic acid amide]

IC50 [1, 3]: < 100 nM
IC50 [2, 4]: 100 to 1000 nM
Compound: COCCN1CCCC(C)(C)c2ccc(Nc3ncc(Cl)c(N[C@H]4[C@@H](C(N)=O)[C@@H]5C=C[C@H]4C5)n3)cc21 [Example 1600, (1S,2S,3R,4R)-3-{5-Chloro-2-[1-(2-methoxy-ethyl)-5,5-dimethyl-2,3,4,5-tetrahydro-1H-benzo[b]azepin-8-ylamino]-pyrimidin-4-ylamino}-bicyclo[2.2.1]hept-5-ene-2-carboxylic acid amide]

IC50 [1, 5]: < 100 nM
IC50 [2, 6]: 1000 to 10000 nM
Compound: Cc1cccnc1-c1ccccc1Nc1nc(Nc2ccc3c(c2)C(C)(C)CCC(=O)N3)ncc1Cl [Example 971, 7-{5-Chloro-4-[2-(3-methyl-pyridin-2-yl)-phenylamino]-pyrimidin-2-ylamino}-5,5-dimethyl-1,3,4,5-tetrahydro-benzo[b]azepin-2-one]

IC50 ([1]; 1 μM ATP (Km level), 30 ng/ml ALK, 37° C., 15 minutes, read-out: ALK Activity (ALK kinase inhibition, IC50 class)): < 100 nM
IC50 ([2]; 1 μM ATP (Km level), 10 ng/mL c-Met, read-out: cMet Activity (c-Met kinase inhibition, IC50 class)): < 100 nM
Compound: CC(C)S(=O)(=O)c1ccccc1Nc1nc(Nc2ccc3c(c2)C(C)(C)CCC(=O)N3C)ncc1Cl [Example 1329, 7-{5-Chloro-4-[2-(propane-2-sulfonyl)-phenylamino]-pyrimidin-2-ylamino}-1,5,5-trimethyl-1,3,4,5-tetrahydro-benzo[b]azepin-2-one]

IC50 [1, 5]: < 100 nM
IC50 [2, 6]: > 10000 nM
Compound: CNC(=O)C1C2C=CC(C2)C1Nc1nc(Nc2cc3c(cc2OC)CCN(CCOC)CC3)ncc1Cl (stereo not drawn) [Example 604, (2-exo-3-exo)-3-{5-Chloro-2-[8-methoxy-3-(2-methoxy-ethyl)-2,3,4,5-tetrahydro-1H-benzo[d]azepin-7-ylamino]-pyrimidin-4-ylamino}-bicyclo[2.2.1]hept-5-ene-2-carboxylic acid methylamide]

IC50 [1, 3]: 100 to 1000 nM
IC50 [2, 4]: 1000 to 10000 nM
Compound: COCCN1CCc2ccc(Nc3ncc(Cl)c(Nc4c(F)cccc4C(=O)NCC4CC4)n3)cc2CC1 [Example 1711, 2-{5-Chloro-2-[3-(2-methoxy-ethyl)-2,3,4,5-tetrahydro-1H-benzo[d]azepin-7-ylamino]-pyrimidin-4-ylamino}-N-cyclopropylmethyl-3-fluoro-benzamide]

IC50 [1, 3]: < 100 nM
IC50 [2, 4]: < 100 nM
Compound: CCN1CCN(CC(=O)OCCOC)C(=O)c2ccc(Nc3ncc(Cl)c(Nc4ccccc4C(=O)NC)n3)cc21 [Example 1459, {8-[5-Chloro-4-(2-methylcarbamoyl-phenylamino)-pyrimidin-2-ylamino]-1-ethyl-5-oxo-1,2,3,5-tetrahydro-benzo[e][1,4]diazepin-4-yl}-acetic acid 2-methoxy-ethyl ester]

IC50 [1, 5]: 1000 to 10000 nM
IC50 [2, 6]: > 10000 nM
Compound: COc1cc2c(cc1Nc1ncc(C(F)(F)F)c(Nc3ccccc3S(=O)(=O)C(C)C)n1)CCN(CC(=O)N(C)C)CC2 [Example 932, 2-(7-Methoxy-8-{4-[2-(propane-2-sulfonyl)-phenylamino]-5-trifluoromethyl-pyrimidin-2-ylamino}-1,2,4,5-tetrahydro-3-benzazepin-3-yl)-N,N-dimethyl-acetamide]

IC50 [1, 5]: < 100 nM
IC50 [2, 6]: 1000 to 10000 nM
Compound: COc1c(Nc2ncc(Cl)c(Nc3ccccc3S(=O)(=O)N3CC[C@H](O)C3)n2)ccc2c1CCCC(NCCO)C2 (stereo partly drawn) [Example 963, (S)-1-(2-{5-Chloro-2-[6-(2-hydroxy-ethylamino)-1-methoxy-6,7,8,9-tetrahydro-5H-benzocyclohepten-2-ylamino]-pyrimidin-4-ylamino}-benzenesulfonyl)-pyrrolidin-3-ol]

IC50 [1, 3]: 1000 to 10000 nM
IC50 [2, 4]: 100 to 1000 nM
Compound: CCNc1nnc(-c2ccccc2Nc2nc(Nc3ccc4c(c3)CCOC(=O)N4C)ncc2Cl)o1 [Example 1783, 2-{5-Chloro-4-[2-(5-ethylamino-[1,3,4]oxadiazol-2-yl)-phenylamino]-pyrimidin-2-ylamino}-5-methyl-8,9-dihydro-5H-7-oxa-5-aza-benzocyclohepten-6-one]

IC50 [1, 7]: < 100 nM
IC50 [2, 8]: > 10000 nM
Compound: COc1cc2c(cc1Nc1ncc(Cl)c(N[C@@H]3CCCC[C@H]3NS(C)(=O)=O)n1)N(C)CCN(C[C@@H](O)C(F)(F)F)C2 [Example 492, N-((1R,2R)-2-{5-Chloro-2-[7-methoxy-1-methyl-4-((R)-3,3,3-trifluoro-2-hydroxy-propyl)-2,3,4,5-tetrahydro-1H-benzo[e][1,4]diazepin-8-ylamino]-pyrimidin-4-ylamino}-cyclohexyl)-methanesulfonamide]

IC50 [1, 5]: < 100 nM
IC50 [2, 6]: 1000 to 10000 nM
Compound: CCN1CCN(CC)c2cc(Nc3ncc(Cl)c(N[C@H]4[C@@H](C(N)=O)[C@@H]5C=C[C@H]4C5)n3)ccc2C1 [Example 720, (1S,2S,3R,4R)-3 [5-Chloro-2-(1,4-diethyl-2,3,4,5-tetrahydro-1H-1,4-benzodiazepin-8-ylamino)-pyrimidin-4ylamino]-bicyclo[2.2.1]hept-5-ene-2-carboxylic acid amide]
